From publication PMC8698070, “The Zoonotic Helminth Parasite Fasciola hepatica: Virulence-Associated Cathepsin B and Cathepsin L Cysteine Peptidases Secreted by Infective Newly Excysted Juveniles (NEJ)” (Animals : an Open Access Journal from MDPI, 2021)
Where “and” joins values, the source holds several entries; their conditions need not be identical. Identical values can stand only once. Entries after “also recorded” stand apart in the source; their conditions may differ. Like-named read-outs stand apart in the source and are kept apart here. Where a SMILES comes first, the peptide text is derived from it. The star is where a group is joined. Cbz = O=C(OCc1ccccc1)*

Tests used:
FhCB1 = FhCB1 (Fasciola hepatica, UniProt Q8I7B2); assay: Inhibition of recombinant FhCB1, fluorogenic substrate assay (Z-Phe-Arg-AMC); assay type: biochemical; conditions: for inhibition of enzymatic activity (inhibitor screen, Figure 5), in words: FhCB1, inhibitor 1000-15 nM; for Ki: read-out: inhibition constant Ki
Method: (§1) Recombinant peptidases were assayed for enzymatic activity using a fluorogenic substrate assay. The reactions were carried out in 0.1 M C-P buffer (pH 7.0) with 1 mM DTT in a final volume of 200 μL, in a black 96-well plate. Each well contained activated enzyme (140 nM) and 20 μM fluorogenic substrate, which was added to start the reaction. All assays were run in triplicate at 37 °C for 1 h. Enzyme activity was monitored by rate of hydrolysis and subsequent release of the AMC group on the synthetic peptide substrates at an excitation wavelength of 370 nm and an emission wavelength of 460 nm, as relative fluorescence units (RFU), in a PolarStar Omega Spectrophotometer (BMG Labtech, Aylesbury, UK). All data were plotted and analysed using MARS Data Analysis Software (BMG Labtech, UK) and GraphPad Prism version 5.
(§2) Commercially available inhibitors of cathepsin B (Ca074 and Ca074-OMe), cathepsin L (L, L1, LII, LIII and LIV), cathepsin K (KI, KII and KIII) and cathepsin S were purchased from Merck Millipore (Cork, Ireland; Supplementary Figure S2). The broad-spectrum papain peptidase inhibitor Z-Phe-Ala-FMK was purchased from Enzo Life Sciences (Exeter, UK). These were used to determine and compare the inhibition constant (Ki) against the recombinant FhCBs and FhCL3. All the assays were carried out in 0.1 M C-P buffer with 1 mM DTT and 0.01% Brij® L23, at the pH corresponding to the optimum for each enzyme in a total 200 µL reaction volume. The peptidases (140 nM) were pre-incubated with the inhibitor (1000-15 nM) at room temperature, for 30 min, before starting the reaction by the addition of the substrate that was optimal for each enzyme (FhCB1, Z-Phe-Arg-AMC; FhCB2 and FhCB3, Z-Val-Ile-Arg-AMC; FhCL3, Z-Gly-Pro-Arg-AMC). Substrate concentrations were equal to KM (shown in Table 1) and the apparent inhibition constant (Ki^app) values were calculated with GraphPad Prism 5, using the Morrison equation for tight binding inhibition (Equation (3)). For competitive inhibitors, such as those used in this study, Ki^app was fitted to a second equation (Equation (4)) from which Ki can be determined. (3) vi/vo=1−([E])+[I]+Kiapp)−([E]+[I]+Kiapp)^2−4[E][I] /2[E] (4) Kiapp=Ki(1+[S]/KM)

FhCB2 = FhCB2 (Fasciola hepatica, UniProt A5X493); assay: Inhibition of recombinant FhCB2, fluorogenic substrate assay (Z-Val-Ile-Arg-AMC); assay type: biochemical; conditions: for inhibition of enzymatic activity (inhibitor screen, Figure 5), in words: FhCB2, inhibitor 1000-15 nM
Method: as §1, §2

FhCB3 = FhCB3 (Fasciola hepatica, UniProt A7UNB2); assay: Inhibition of recombinant FhCB3, fluorogenic substrate assay (Z-Val-Ile-Arg-AMC); assay type: biochemical; conditions: for inhibition of enzymatic activity (inhibitor screen, Figure 5), in words: FhCB3, inhibitor 1000-15 nM
Method: as §1, §2

FhCL3 = FhCL3 (Fasciola hepatica, UniProt A0A879R2T5); assay: Inhibition of recombinant FhCL3, fluorogenic substrate assay (Z-Gly-Pro-Arg-AMC); assay type: biochemical; conditions: for inhibition of enzymatic activity (inhibitor screen, Figure 5), in words: FhCL3, inhibitor 1000-15 nM
Method: as §1, §2

human cathepsin B (HsCB) = biological target: T1, human cathepsin B (HsCB) (Homo sapiens, UniProt P07858); assay: Inhibitor screen against human cathepsin B control; assay type: biochemical
T1 construct: purchased Sigma-Aldrich; host or cells: human embryonic kidney cells
From the text: (§3) The Schistosoma mansoni cathepsin B1 (SmCB1) was also produced in our laboratory using P. pastoris as described above. The human cathepsin B (HsCB) and cathepsin L1 (HsCL1) were produced in human embryonic kidney cells (Sigma-Aldrich).
as §2, with “All the assays were carried out in 0.1 M C-P buffer with 1 mM DTT and 0.01% Brij® L23, at the pH corresponding to the optimum for each enzyme in a total 200 µL reaction volume. The peptidases (140 nM) were pre-incubated with the inhibitor (1000-15 nM) at room temperature, for 30 min, before starting the reaction by the addition of the substrate that was optimal for each enzyme (FhCB1, Z-Phe-Arg-AMC; FhCB2 and FhCB3, Z-Val-Ile-Arg-AMC; FhCL3, Z-Gly-Pro-Arg-AMC).” left out
The broad-range cysteine peptidase inhibitor Z-Phe-Ala-FMK was also included (Figure 5).
Figure 5 Profile of inhibition of FhCB1, FhCB2, FhCB3 and FhCL3. Commercially available inhibitors of cathepsin B (Ca074 and Ca07a-OMe), cathepsin L (L, L1, LII, LIII and LIV), cathepsin K (KI, KII and KIII), cathepsin S and the broad-spectrum papain peptidase inhibitor Z-Phe-Ala-FMK (A–L) were used to determine and compare the inhibition constant against recombinants FhCB1, FhCB2, FhCB3, FhCL3, HsCB and HsCL1. […] Error bars indicate standard deviation of three replicates.

NEJ = system: NEJ; set-up: method as in PMID 19401154; conditions: concentration of 6.25 μM; cited from earlier work
cathepsin L1 (HsCL1) = biological target: T2, cathepsin L1 (HsCL1) (Homo sapiens, UniProt P07711); assay: Inhibitor screen against human cathepsin L1 control; assay type: biochemical
T2 construct: purchased Sigma-Aldrich; host or cells: human embryonic kidney cells
From the text: as §3, §2
A panel of 12 commercially available cysteine peptidase inhibitors that preferentially target mammalian cathepsin B (Ca074 and Ca074-OMe), cathepsin L (L, L1, LII, LIII and LIV) cathepsin S (S) and cathepsin K (KI, KII and KIII) were screened against the FhCBs, FhCL3 and, as controls, HsCB and HsCL1. The broad-range cysteine peptidase inhibitor Z-Phe-Ala-FMK was also included (Figure 5).
Figure 5 Profile of inhibition of FhCB1, FhCB2, FhCB3 and FhCL3. Commercially available inhibitors of cathepsin B (Ca074 and Ca07a-OMe), cathepsin L (L, L1, LII, LIII and LIV), cathepsin K (KI, KII and KIII), cathepsin S and the broad-spectrum papain peptidase inhibitor Z-Phe-Ala-FMK (A–L) were used to determine and compare the inhibition constant against recombinants FhCB1, FhCB2, FhCB3, FhCL3, HsCB and HsCL1. Activity is represented as the percentage of enzymatic activity observed by hydrolysis of a fluorogenic quenched peptide substrate following a pre-incubation with inhibitor in relation to the activity of the enzyme alone. Error bars indicate standard deviation of three replicates.

F. hepatica NEJ = assay: Viability of NEJ in culture; assay type: cell-based, Fasciola hepatica; conditions: 100 μM inhibitor, 24 h culture, compared to the DMSO group
Method: NEJ were washed three times in a culturing medium (RPMI-1640 medium supplemented with 30 mM HEPES, 0.1% glucose, 10% foetal bovine serum and 50 μg/mL of gentamicin) and their viability assessed by culturing the parasites in 1 mL of culture medium containing 100 μM of the inhibitor at 5% CO2 at 37 °C for 24 h. After incubation, the number of moribund/dead parasites were counted using a light microscope (25× magnification). The criteria used to assess the NEJ viability were loss of motility and peristaltic movement and any obvious damage to the tegument or internal structures, as previously standardized by. The experiments were performed in triplicate. The average of the replicate experimental data was subjected to a two-way ANOVA comparing the values obtained with each inhibitor against the mean of the DMSO control group, with minimum 95% confidence intervals. All the statistical analyses were performed using GraphPad Prism 5.

human cathepsins S = biological target: human cathepsins S; set-up: method as in PMID 10964677; conditions: human cathepsin S; cited from earlier work
human cathepsins B = biological target: human cathepsins B; set-up: method as in PMID 10964677; conditions: human cathepsin B; cited from earlier work
[1] = system: F. hepatica metacercariae; assay: Excystment of F. hepatica metacercariae in vitro; assay type: cell-based, Fasciola hepatica; conditions: 100 μM inhibitor, 3 h, 37 °C, 50 metacercariae per well; vs DMSO control
Method: F. hepatica metacercariae (Italian isolate; Ridgeway Research, Saint Briavels, UK) were prepared for excystment as previously described by Robinson et al.. To verify the effect of the cathepsin peptidase inhibitors on the ability of the metacercariae to excyst, 50 metacercariae per well were placed into a 24-well plate and 1 mL of excystment medium (0.6% sodium bicarbonate, 0.45% sodium chloride, 0.4% sodium tauroglycocholate, 0.025 N HCl and 0.4% L-cysteine) supplemented with 100 μM of the inhibitor was added to the well. As controls, we used PBS and dimethylsulfoxide (DMSO, 1:100; Sigma-Aldrich) alone. The plate was then incubated at 37 °C with 5% CO2, for 3 h to allow metacercarial excystment. Using a light microscope (25× magnification), the number of excysted NEJ was determined.

[2] = system: F. hepatica metacercariae; set-up: method as in PMID 19443417; conditions: final concentration of 1 mM; cited from earlier work
[3] = recombinant FhCB1 140 nM, 30 min pre-incubation, substrate Z-Phe-Arg-AMC at KM, optimum pH, ± SEM
[4] = inhibition constant Ki, recombinant FhCL3 140 nM, 30 min pre-incubation, substrate Z-Gly-Pro-Arg-AMC at KM, optimum pH, ± SEM

Sequence of FhCB3 (A7UNB2 entry or part of it): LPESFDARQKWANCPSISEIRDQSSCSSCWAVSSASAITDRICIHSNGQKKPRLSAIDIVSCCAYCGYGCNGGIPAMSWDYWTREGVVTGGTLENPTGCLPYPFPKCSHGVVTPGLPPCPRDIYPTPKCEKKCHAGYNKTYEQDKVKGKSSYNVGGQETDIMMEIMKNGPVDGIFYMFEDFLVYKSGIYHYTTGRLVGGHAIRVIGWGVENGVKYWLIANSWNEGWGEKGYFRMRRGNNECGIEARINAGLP
Sequence of FhCL3 (A0A879R2T5 entry or part of it): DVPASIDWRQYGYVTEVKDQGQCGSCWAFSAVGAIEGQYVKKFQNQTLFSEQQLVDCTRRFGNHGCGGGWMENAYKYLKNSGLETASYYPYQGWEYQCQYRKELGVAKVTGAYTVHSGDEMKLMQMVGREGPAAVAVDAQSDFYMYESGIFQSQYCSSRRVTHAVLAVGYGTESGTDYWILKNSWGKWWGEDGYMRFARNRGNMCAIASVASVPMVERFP
Sequence of FhCB2 (A5X493 entry or part of it): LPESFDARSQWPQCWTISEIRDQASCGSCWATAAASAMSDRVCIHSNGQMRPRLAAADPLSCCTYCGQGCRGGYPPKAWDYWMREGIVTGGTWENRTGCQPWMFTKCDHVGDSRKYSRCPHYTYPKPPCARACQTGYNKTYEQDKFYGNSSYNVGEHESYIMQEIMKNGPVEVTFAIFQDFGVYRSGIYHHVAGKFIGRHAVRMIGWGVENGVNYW
Sequence of FhCB1 (Q8I7B2 entry or part of it): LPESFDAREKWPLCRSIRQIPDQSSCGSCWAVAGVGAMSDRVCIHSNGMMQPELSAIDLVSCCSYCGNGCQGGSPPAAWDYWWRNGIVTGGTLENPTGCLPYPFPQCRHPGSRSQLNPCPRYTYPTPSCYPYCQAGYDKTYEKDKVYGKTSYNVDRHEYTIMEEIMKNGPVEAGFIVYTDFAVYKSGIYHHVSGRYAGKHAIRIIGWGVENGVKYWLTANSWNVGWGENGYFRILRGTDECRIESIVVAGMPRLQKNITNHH
T2 sequence (P07711 114-333): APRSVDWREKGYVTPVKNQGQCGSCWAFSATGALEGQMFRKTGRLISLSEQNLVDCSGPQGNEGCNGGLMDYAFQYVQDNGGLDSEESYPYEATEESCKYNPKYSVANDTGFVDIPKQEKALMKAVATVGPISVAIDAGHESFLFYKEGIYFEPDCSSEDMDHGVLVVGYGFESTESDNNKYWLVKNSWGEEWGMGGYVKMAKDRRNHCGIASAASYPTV

CCCNC(=O)[C@H]1O[C@@H]1C(=O)N[C@H](C(=O)N1CCC[C@H]1C(=O)OC)[C@@H](C)CC [Ca074ME]
inhibition of enzymatic activity (inhibitor screen, Figure 5), in words (FhCB1; listed as Ca074-OMe): poor inhibitors; also recorded: very poor inhibitors
inhibition constant Ki (FhCB1; [3]): poor inhibition
Ki (FhCB1; [3]): 5500 ± 1190 nM
inhibition of enzymatic activity (inhibitor screen, Figure 5), in words (FhCB2; listed as Ca074-OMe): poor inhibitors; also recorded: very poor inhibitors
inhibition constant Ki (FhCB2; recombinant FhCB2 140 nM, 30 min pre-incubation, substrate Z-Val-Ile-Arg-AMC at KM, optimum pH, ± SEM): poor inhibition
Ki (FhCB3): 785 ± 130 nM
inhibition of enzymatic activity (inhibitor screen, Figure 5), in words (FhCB3; listed as Ca074-OMe): poor inhibitors; also recorded: very poor inhibitors
inhibition constant Ki (FhCB3; recombinant FhCB3 140 nM, 30 min pre-incubation, substrate Z-Val-Ile-Arg-AMC at KM, optimum pH, ± SEM): poor inhibition
inhibition of enzymatic activity (inhibitor screen, Figure 5), in words (FhCL3): poor inhibitors
Ki (FhCL3; [4]): 249 ± 35.5 nM
inhibition constant Ki (FhCL3; recombinant FhCL3 140 nM, 30 min pre-incubation, substrate Z-Gly-Pro-Arg-AMC at KM, optimum pH, ± SEM): poor inhibition
inhibition of enzymatic activity (inhibitor screen, Figure 5), in words (human cathepsin B (HsCB)): selective for HsCB compared to HsCL1
effect on cultured NEJ (NEJ): sub-lethal effect

O=CC(Cc1ccc(O)cc1)NC(=O)C(Cc1ccccc1)NC(=O)OCc1ccccc1 (stereo not drawn) [LII] (Cbz-Phe-Tyr-aldehyde; configuration not given here)
inhibition of enzymatic activity (inhibitor screen, Figure 5), in words (FhCB1): most effective at reducing the enzymatic activity
inhibition of enzymatic activity (inhibitor screen, Figure 5), in words (FhCB2): most effective at reducing the enzymatic activity
Ki (FhCB2; recombinant FhCB2 140 nM, 30 min pre-incubation, substrate Z-Val-Ile-Arg-AMC at KM, optimum pH, ± SEM, read-out: inhibition constant Ki): 1840 ± 77 nM
inhibition of enzymatic activity (inhibitor screen, Figure 5), in words (FhCB3): most effective at reducing the enzymatic activity
Ki (FhCB3; recombinant FhCB3 140 nM, 30 min pre-incubation, substrate Z-Val-Ile-Arg-AMC at KM, optimum pH, ± SEM, read-out: inhibition constant Ki): 211 ± 34.8 nM
inhibition of enzymatic activity (inhibitor screen, Figure 5), in words (FhCL3): most effective at reducing the enzymatic activity
Ki (FhCL3; recombinant FhCL3 140 nM, 30 min pre-incubation, substrate Z-Gly-Pro-Arg-AMC at KM, optimum pH, ± SEM, read-out: inhibition constant Ki): 8 ± 0.6 nM
inhibition of enzymatic activity (inhibitor screen, Figure 5), in words (human cathepsin B (HsCB)): inhibited
inhibition of enzymatic activity (inhibitor screen, Figure 5), in words (cathepsin L1 (HsCL1)): specificity for HsCL1 over HsCBs; also recorded: inhibited

CC(C)C[C@H](NC(=O)[C@H](Cc1ccccc1)NC(=O)OCc1ccccc1)C(=O)C=O [S]
Ki (FhCB1; [3]): 14 ± 2.42 nM
Ki (FhCB3): 696 ± 94.8 nM
Ki (FhCL3; [4]): 35 ± 2.4 nM
reduction of NEJ viability (survival) (F. hepatica NEJ): ~ 55%
Ki (human cathepsins S): 0.185 nM
Ki (human cathepsins B): 76 nM

C[C@H](NC(=O)[C@H](Cc1ccccc1)NC(=O)OCc1ccccc1)C(=O)CF [Z-Phe-Ala-FMK]
Ki (FhCB1; [3]): < 15 nM and 3 nM
Ki (FhCB3): 246 ± 55.7 nM
Ki (FhCL3; [4]): 15 ± 5.95 nM
reduction of metacercariae excystment [1]: more than 50%
effect on metacercariae excystment [2]: completely prevented
